Here are results for two compounds from ChEMBL document CHEMBL1158908, “Diyne Enol Ethers of Glycerol from a New Zealand Sponge, Petrosia hebes” (1990).

SMILES strings stand for the structures. Some results are limits rather than exact numbers.

The subject of this test is P388. Nature of the test: Cytotoxicity against mouse P388 cells. It counts as functional. The conditions noted are these: read-out: ID50 (the source's name).

For `CC(C)CCCCCC(O)C#CC#C/C=C\OCC(O)CO` (configuration not stated), the IC50 is above 6 µg/mL. The figure for `CCCCCCCCCC(O)C#CC#C/C=C\OCC(O)CO` (configuration not stated) is above 11 µg/mL.
